Data on five compounds can be found in US20260166128A1, “HUMAN AMYLIN ANALOG, AND DERIVATIVE THEREOF AND USE THEREOF” (priority 2022, published 2026).

Each structure is given as a SMILES string. Numbered stars: 1 amine (or outer) side, 2 acyl side, 3 side chain; on linkers, the order of the positions; unused ones are H or OH. Bridge positions count the residues as written; N and C are the ends. Square brackets hold non-standard residues; d marks the D form. Side chains are listed from the residue outwards. Peptide text beside a SMILES is read from it. * marks the point of attachment. C20 diacid = O=C(O)CCCCCCCCCCCCCCCCCCC(=O)*; C18 diacid = O=C(O)CCCCCCCCCCCCCCCCC(=O)*; γGlu = O=C(O)[C@H](CCC(=O)[*:2])N[*:1]; cisHyp = O=C(O)[C@@H]1C[C@H](O)CN1; Hyp = O=C(O)[C@@H]1C[C@@H](O)CN1; AEEA = NCCOCCOCC(=O)O; Inp = O=C(O)C1CCNCC1

For this assay, the target named is T1, human amylin receptor (Homo sapiens, UniProt O60896+P30988).
T1 construct: host or cells: CHO-K1/Ga15/AMY3 cells, further stably transfected with a CRE-luciferase plasmid
T1 sequence (P30988 25-474): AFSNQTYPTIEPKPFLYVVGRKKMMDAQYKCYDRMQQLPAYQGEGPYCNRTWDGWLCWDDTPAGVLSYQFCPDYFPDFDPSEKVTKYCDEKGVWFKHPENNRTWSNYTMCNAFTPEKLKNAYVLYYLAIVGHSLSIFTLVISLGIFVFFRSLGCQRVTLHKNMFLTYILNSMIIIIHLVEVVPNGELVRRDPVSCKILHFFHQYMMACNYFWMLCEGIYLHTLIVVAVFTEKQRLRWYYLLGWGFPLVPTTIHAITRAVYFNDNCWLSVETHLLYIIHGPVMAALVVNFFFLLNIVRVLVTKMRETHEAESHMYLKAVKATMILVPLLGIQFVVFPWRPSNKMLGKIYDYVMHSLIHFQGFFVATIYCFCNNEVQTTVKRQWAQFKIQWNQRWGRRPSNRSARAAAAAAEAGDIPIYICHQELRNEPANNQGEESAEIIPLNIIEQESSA
T1 sequence (O60896 24-148 partner): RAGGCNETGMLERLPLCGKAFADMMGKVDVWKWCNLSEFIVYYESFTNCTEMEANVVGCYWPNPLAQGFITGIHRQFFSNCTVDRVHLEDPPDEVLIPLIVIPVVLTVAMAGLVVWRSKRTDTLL
As to the kind of experiment: Luciferase assay of amylin derivatives in amylin receptor/CRE-luc CHO cell line. Format: cell-based. The settings on record: CHO-K1/Ga15/AMY3 CRE-luc cells, 24 hours incubation, F12 medium containing 10% FBS; read-out: EC50.
Method: The experiment was intended to detect the activity or efficacy of the amylin derivatives on a human amylin receptor in vitro by luciferase assay.
50 μL of growth medium (F12 medium containing 10% FBS) was added into each well of a white 96-well plate, and the stably transfected amylin/CRE-lue CHO cells were inoculated into the white 96-well plate at a density of about 20,000 cells/well for activity determination.
As for `CC[C@H](C)[C@H](NC(=O)[C@@H]1CCCN1C(=O)[C@H](CCCCNC(=O)CC[C@H](NC(=O)CCCCCCCCCCCCCCCCCCC(=O)O)C(=O)O)NC(=O)[C@H](CC(C)C)NC(=O)[C@H](CC(N)=O)NC(=O)[C@H](CC(N)=O)NC(=O)[C@H](CO)NC(=O)[C@H](CO)NC(=O)[C@H](Cc1c[nH]cn1)NC(=O)[C@H](CCCNC(=N)N)NC(=O)[C@H](CC(C)C)NC(=O)[C@H](Cc1ccccc1)NC(=O)[C@H](CC(=O)O)NC(=O)[C@H](C)NC(=O)[C@H](CC(C)C)NC(=O)[C@H](CCCNC(=N)N)NC(=O)[C@H](CCC(N)=O)NC(=O)[C@@H](NC(=O)[C@H](C)NC(=O)[C@@H]1CSSC[C@H](NC(=O)[C@@H](N)CC(=O)O)C(=O)N[C@@H](CC(N)=O)C(=O)N[C@@H]([C@@H](C)O)C(=O)N[C@@H](C)C(=O)N[C@@H]([C@@H](C)O)C(=O)N1)[C@@H](C)O)C(=O)N[C@@H](CC(C)C)C(=O)N1CCC[C@H]1C(=O)N1CCC[C@H]1C(=O)N[C@H](C(=O)N[C@@H](CC(N)=O)C(=O)N[C@H](C(=O)NCC(=O)N[C@@H](CO)C(=O)N[C@@H](CC(N)=O)C(=O)N[C@H](C(=O)N1C[C@H](O)C[C@H]1C(N)=O)[C@@H](C)O)C(C)C)[C@@H](C)O` [PD079] (H-DCNTATCATQRLADFLRHSSNNLK([γGlu-C20 diacid])PILPPTNVGSNT[Hyp]-NH2; disulfide 2-7), the EC50 worked out at 0.131 nM.

As to `CC[C@H](C)[C@H](NC(=O)[C@@H]1CCCN1C(=O)[C@H](CCCCNC(=O)CC[C@H](NC(=O)CCCCCCCCCCCCCCCCCCC(=O)O)C(=O)O)NC(=O)[C@H](CC(C)C)NC(=O)[C@H](CC(N)=O)NC(=O)[C@H](CC(N)=O)NC(=O)[C@H](CO)NC(=O)[C@H](CO)NC(=O)[C@H](Cc1c[nH]cn1)NC(=O)[C@H](CCCNC(=N)N)NC(=O)[C@H](CC(C)C)NC(=O)[C@H](Cc1ccccc1)NC(=O)[C@H](CC(=O)O)NC(=O)[C@H](C)NC(=O)[C@H](CC(C)C)NC(=O)[C@H](CCCNC(=N)N)NC(=O)[C@H](CCC(N)=O)NC(=O)[C@@H](NC(=O)[C@H](C)NC(=O)[C@@H]1CSSC[C@H](NC(=O)[C@@H](N)CCCNC(=N)N)C(=O)N[C@@H](CC(N)=O)C(=O)N[C@@H]([C@@H](C)O)C(=O)N[C@@H](C)C(=O)N[C@@H]([C@@H](C)O)C(=O)N1)[C@@H](C)O)C(=O)N[C@@H](CC(C)C)C(=O)N1CCC[C@H]1C(=O)N1CCC[C@H]1C(=O)N[C@H](C(=O)N[C@@H](CC(N)=O)C(=O)N[C@H](C(=O)NCC(=O)N[C@@H](CO)C(=O)N[C@@H](CC(N)=O)C(=O)N[C@H](C(=O)N1C[C@@H](O)C[C@H]1C(N)=O)[C@@H](C)O)C(C)C)[C@@H](C)O` [PD056] (H-RCNTATCATQRLADFLRHSSNNLK([γGlu-C20 diacid])PILPPTNVGSNT[cisHyp]-NH2; disulfide 2-7), the EC50 came to 0.586 nM.

Turning to `CC[C@H](C)[C@H](NC(=O)[C@@H]1CCCN1C(=O)CNC(=O)[C@H](CCCCNC(=O)COCCOCCNC(=O)COCCOCCNC(=O)CC[C@H](NC(=O)CCCCCCCCCCCCCCCCC(=O)O)C(=O)O)NC(=O)[C@H](CC(N)=O)NC(=O)[C@H](CC(N)=O)NC(=O)[C@H](CO)NC(=O)[C@H](CO)NC(=O)[C@H](Cc1c[nH]cn1)NC(=O)[C@H](CCCNC(=N)N)NC(=O)[C@H](CC(C)C)NC(=O)[C@H](Cc1ccccc1)NC(=O)[C@H](CC(=O)O)NC(=O)[C@H](C)NC(=O)[C@H](CC(C)C)NC(=O)[C@H](CCCNC(=N)N)NC(=O)[C@H](CCC(N)=O)NC(=O)[C@@H](NC(=O)[C@H](C)NC(=O)[C@@H]1CSSC[C@H](NC(=O)[C@@H](N)CCCNC(=N)N)C(=O)N[C@@H](CC(N)=O)C(=O)N[C@@H]([C@@H](C)O)C(=O)N[C@@H](C)C(=O)N[C@@H]([C@@H](C)O)C(=O)N1)[C@@H](C)O)C(=O)N[C@@H](CC(C)C)C(=O)N1CCC[C@H]1C(=O)N1CCC[C@H]1C(=O)N[C@H](C(=O)N[C@@H](CC(N)=O)C(=O)N[C@H](C(=O)NCC(=O)N[C@@H](CO)C(=O)N[C@@H](CC(N)=O)C(=O)N[C@H](C(=O)N1C[C@H](O)C[C@H]1C(N)=O)[C@@H](C)O)C(C)C)[C@@H](C)O` [PD085] (H-RCNTATCATQRLADFLRHSSNNK([AEEA-AEEA-γGlu-C18 diacid])GPILPPTNVGSNT[Hyp]-NH2; disulfide 2-7), the EC50 was 0.005 nM.

Take `CC[C@H](C)[C@H](NC(=O)[C@@H]1CCCN1C(=O)CNC(=O)[C@H](CC(C)C)NC(=O)[C@H](CC(N)=O)NC(=O)[C@H](CCCCNC(=O)CC[C@H](NC(=O)CCCCCCCCCCCCCCCCC(=O)O)C(=O)O)NC(=O)[C@H](CO)NC(=O)[C@H](CO)NC(=O)[C@H](Cc1c[nH]cn1)NC(=O)[C@H](CCCNC(=N)N)NC(=O)[C@H](CC(C)C)NC(=O)[C@H](Cc1ccccc1)NC(=O)[C@H](CC(=O)O)NC(=O)[C@H](C)NC(=O)[C@H](CC(C)C)NC(=O)[C@H](CCCNC(=N)N)NC(=O)[C@H](CCC(N)=O)NC(=O)[C@@H](NC(=O)[C@H](C)NC(=O)[C@@H]1CSSC[C@H](NC(=O)[C@@H](N)CCCNC(=N)N)C(=O)N[C@@H](CC(N)=O)C(=O)N[C@@H]([C@@H](C)O)C(=O)N[C@@H](C)C(=O)N[C@@H]([C@@H](C)O)C(=O)N1)[C@@H](C)O)C(=O)N[C@@H](CC(C)C)C(=O)N1CCC[C@H]1C(=O)N1CCC[C@H]1C(=O)N[C@H](C(=O)N[C@@H](CC(N)=O)C(=O)N[C@H](C(=O)NCC(=O)N[C@@H](CO)C(=O)N[C@@H](CC(N)=O)C(=O)N[C@H](C(=O)N1C[C@H](O)C[C@H]1C(N)=O)[C@@H](C)O)C(C)C)[C@@H](C)O` [PD092] (H-RCNTATCATQRLADFLRHSSK([γGlu-C18 diacid])NLGPILPPTNVGSNT[Hyp]-NH2; disulfide 2-7): the EC50 was 0.016 nM.

For `CC[C@H](C)[C@H](NC(=O)[C@@H]1CCCN1C(=O)[C@H](CCCCN)NC(=O)[C@H](CC(C)C)NC(=O)[C@H](CC(N)=O)NC(=O)[C@H](CC(N)=O)NC(=O)[C@H](CO)NC(=O)[C@H](CO)NC(=O)[C@H](Cc1c[nH]cn1)NC(=O)[C@H](CCCNC(=N)N)NC(=O)[C@H](CC(C)C)NC(=O)[C@H](Cc1ccccc1)NC(=O)[C@H](CC(=O)O)NC(=O)[C@H](C)NC(=O)[C@H](CC(C)C)NC(=O)[C@H](CCCNC(=N)N)NC(=O)[C@H](CCC(N)=O)NC(=O)[C@@H](NC(=O)[C@H](C)NC(=O)[C@@H]1CSSC[C@H](NC(=O)[C@H](CCCCN)NC(=O)C2CCN(C(=O)COCCOCCNC(=O)COCCOCCNC(=O)CCCCCCCCCCCCCCCCCCC(=O)O)CC2)C(=O)N[C@@H](CC(N)=O)C(=O)N[C@@H]([C@@H](C)O)C(=O)N[C@@H](C)C(=O)N[C@@H]([C@@H](C)O)C(=O)N1)[C@@H](C)O)C(=O)N[C@@H](CC(C)C)C(=O)N1CCC[C@H]1C(=O)N1CCC[C@H]1C(=O)N[C@H](C(=O)N[C@@H](CC(N)=O)C(=O)N[C@H](C(=O)NCC(=O)N[C@@H](CO)C(=O)N[C@@H](CC(N)=O)C(=O)N[C@H](C(=O)N1CCC[C@H]1C(N)=O)[C@@H](C)O)C(C)C)[C@@H](C)O` [PD192] ({C20 diacid-AEEA-AEEA-Inp}-KCNTATCATQRLADFLRHSSNNLKPILPPTNVGSNTP-NH2; disulfide 2-7 (inferred)), the EC50 is 0.087 nM.

Broadly, the EC50 is the concentration at which the effect is half-maximal.
